Reference: patent US20220195384A1, “COMPOSITION FOR PROMOTING PRODUCTION OF STEM CELL-DERIVED EXOSOMES AND INCREASING STEMNESS” (BREXOGEN INC., priority 2019, published 2022)
Where no end group is shown, it is not given here.

Key:
Format in all cases: cell-based
[1] = tested on: primary umbilical cord-derived mesenchymal stem cells; assay: Stem cell proliferation (CCK, absorbance 450 nm) after pretreatment; conditions: 24 h culture, CCK 4 h
Protocol: (§1) In a culture medium [high glucose DMEM (Gibco, Cat no. 11995-065); 10% fetal bovine serum (HyClone), 1% MEM non-essential amino acids solution (100×) (Gibco, Cat no. 11140-050)] containing 20 nM of exendin-4, primary umbilical cord-derived mesenchymal stem cells (ATCC No. PCS-500-010; Lot No. 63822428) were cultured for one week.
as §1, with “10” for “20”, “PMA,” for “exendin-4,”
as §1, with “10 ng/mL interferon-γ,” for “20 nM of exendin-4,”
as §1, with “10 μM” for “20 nM”, “tetrandrine,” for “exendin-4,”
as §1, with “10 μg/mL hyaluronic acid,” for “20 nM of exendin-4,”
as §1, with “30” for “20”, “substance P,” for “exendin-4,”
as §1, with “10” for “20”, “resveratrol,” for “exendin-4,”
as §1, with “10 μM” for “20 nM”, “lanifibranor,” for “exendin-4,”
(§2) Mesenchymal stem cells and the exendin-4-pretreated mesenchymal stem cells of the Example were each seeded at a density of 3,000 cells/well into 96-well plates containing 100 μL of a culture medium [high glucose DMEM (Gibco, Cat no. 11995-065), 10% fetal bovine serum (HyClone), 1% MEM non-essential amino acids solution (100×) (Gibco, Cat no. 11140-050)] per well and cultured for 24 hours in a CO2 incubator. Then, CCK solution (10 μL/well) was added, and incubation was continued for 4 hours in the CO2 incubator, followed by reading absorbance at a wavelength of 450 nm (420-480 nm) to determine proliferation.
as §2, with “PMA-pretreated” for “exendin-4-pretreated”, “proliferation. […]” for “proliferation.”

[2] = tested on: primary umbilical cord-derived mesenchymal stem cells; assay: Stem cell stemness: colony formation (CFU-F, crystal violet) after pretreatment; conditions: for colonies formed (each 50 or more cells): 1,000 cells/dish, 21 days; for CFU-F increase: vs non-treated
Protocol: as §1
as §1, with “10” for “20”, “PMA,” for “exendin-4,”
as §1, with “10 ng/mL interferon-γ,” for “20 nM of exendin-4,”
as §1, with “10 μM” for “20 nM”, “tetrandrine,” for “exendin-4,”
as §1, with “10 μg/mL hyaluronic acid,” for “20 nM of exendin-4,”
as §1, with “30” for “20”, “substance P,” for “exendin-4,”
as §1, with “10” for “20”, “resveratrol,” for “exendin-4,”
as §1, with “10 μM” for “20 nM”, “lanifibranor,” for “exendin-4,”
Mesenchymal stem cells and the exendin-4-pretreated mesenchymal stem cells of the Example were each seeded at a density of 1,000 cells/dish into 100-mm cell culture dishes containing […] of a culture medium [high glucose DMEM (Gibco, Cat no. 11995-065), 10% fetal bovine serum (HyClone), 1% MEM non-essential amino acids solution (100×) (Gibco, Cat no. 11140-050)] per dish and cultured for 21 days. The cell-attached dishes were washed twice with PBS, followed by fixation with 95% methanol at room temperature for about 2 min. The fixed cells were washed three times with PBS and stained with 0.5% crystal violet [(sigma, C-3886, USA) […], methanol 100 ml] for 5 min. After water washing and drying at room temperature, colonies, each composed of 50 or more cells, were counted for comparison.
Mesenchymal stem cells and the PMA-pretreated mesenchymal stem cells of the Example were each seeded at a density of 1,000 cells/dish into 100-mm cell culture dishes containing […] of a culture medium [high glucose DMEM (Gibco, Cat no. 11995-065), 10% fetal bovine serum (HyClone), 1% MEM non-essential amino acids solution (100×) (Gibco, Cat no. 11140-050)] per dish and cultured for 21 days. The cell-attached dishes were washed twice with PBS, followed by fixation with 95% methanol at room temperature for about 2 min. […]

[3] = tested on: primary umbilical cord-derived mesenchymal stem cells; assay: Number of exosomes by nanoparticle tracking assay (NanoSight NS300); conditions: for No. of exosome particles, yield per 10^6 cells: then 72 h exosome-free FBS medium
Protocol: as §1
(§3) After completion of culturing, the mesenchymal stem cells pretreated with exendin-4 were washed and additionally cultured for 72 hours in a culture medium supplemented with 10% fetal bovine serum (FBS) free of exosomes. The reason of employing exosome-free FBS was to prevent FBS-derived exosomes other than those secreted from the cells from being incorporated because generally used FBS contained a large amount of exosomes derived from bovine serum.
(§4) After 72 hours of culturing, the culture medium in which the pretreated mesenchymal stem cells were cultured was taken and centrifuged at 300×g for 10 min to remove residual cells and cell debris. The supernatant was filtered through a 0.22 μm filter, followed by centrifugation at 10,000×g and 4° C. for 70 min in a high-speed centrifuge. The supernatant thus obtained was subjected again to ultracentrifugation at 100,000×g and 4° C. for 90 min. The exosomes obtained as a pellet were diluted in PBS (phosphate buffered saline) before use in the following experiments.
as §1, with “10” for “20”, “PMA,” for “exendin-4,”
as §3, with “PMA” for “exendin-4”
as §1, with “10 ng/mL interferon-γ,” for “20 nM of exendin-4,”
as §3, with “interferon-γ” for “exendin-4”
as §1, with “10 μM” for “20 nM”, “tetrandrine,” for “exendin-4,”
as §3, with “tetrandrine” for “exendin-4”, “serum. […]” for “serum.”

[4] = tested on: primary umbilical cord-derived mesenchymal stem cells; assay: Content of exosomal protein (Bradford analysis, 595 nm); conditions: for Exosomal protein, yield per 10^6 cells: then 72 h exosome-free FBS medium
Protocol: as §1, §3, §4
as §1, with “10” for “20”, “PMA,” for “exendin-4,”
as §3, with “PMA” for “exendin-4”
as §1, with “10 ng/mL interferon-γ,” for “20 nM of exendin-4,”
as §3, with “interferon-γ” for “exendin-4”
as §1, with “10 μM” for “20 nM”, “tetrandrine,” for “exendin-4,”
as §3, with “tetrandrine” for “exendin-4”, “serum. […]” for “serum.”

[5] = tested on: primary umbilical cord-derived mesenchymal stem cells; assay: Content of exosomal RNA (NanoDrop); conditions: for Exosomal RNA, yield per 10^6 cells: then 72 h exosome-free FBS medium
Protocol: as §1, §3, §4
as §1, with “10” for “20”, “PMA,” for “exendin-4,”
as §3, with “PMA” for “exendin-4”
as §1, with “10 ng/mL interferon-γ,” for “20 nM of exendin-4,”
as §3, with “interferon-γ” for “exendin-4”
as §1, with “10 μM” for “20 nM”, “tetrandrine,” for “exendin-4,”
as §3, with “tetrandrine” for “exendin-4”, “serum. […]” for “serum.”

[6] = 10 μM tetrandrine pretreatment one week
[7] = 30 nM substance P pretreatment one week
[8] = 20 nM exendin-4 pretreatment one week
[9] = 10 μM lanifibranor pretreatment one week

In the case of `COc1ccc2cc1Oc1ccc(cc1)C[C@H]1c3cc(c(OC)cc3CCN1C)Oc1c(OC)c(OC)cc3c1[C@H](C2)N(C)CC3` [tetrandrine], the “increase in proliferation relative to non-treated mesenchymal stem cells” value [1, 6] is reported as “about 260%”, the “proliferation ratio relative to non-treated mesenchymal stem cells (1)” value [1, 6] is reported as 2.6 and the “colonies formed (each 50 or more cells)” value ([2]; 10 μM tetrandrine pretreatment one week, non-treated 28.7) is reported as 121.3 colonies. For the same molecule, the CFU-F increase [2, 6] was “about 423%”, the “fold more exosomes than non-treated mesenchymal stem cells” value [3, 6] was “about 4.3 fold” and the “No. of exosome particles, yield per 10^6 cells” value ([3]; 10 μM tetrandrine pretreatment one week, non-treated 2.3) was 9.84 10^9. For the same molecule, the “fold greater exosomal proteins than non-treated mesenchymal stem cells” value [4, 6] was “about 4.5 fold”, the “Exosomal protein, yield per 10^6 cells” value ([4]; 10 μM tetrandrine pretreatment one week, non-treated 2.0) was 9.42 ug and the “fold greater exosomal RNA than non-treated mesenchymal stem cells” value [5, 6] was “about 4.4 fold”. For the same molecule, the “Exosomal RNA, yield per 10^6 cells” value ([5]; 10 μM tetrandrine pretreatment one week, non-treated 31.0) was 136.0 ng.
“substance P (RPKPQQFFGLM; not fully specified; ends and bridges not checked; UniProt P20366 58-68, looked up) [undecapeptide of the tachykinin neuropeptide family acting on NK1 receptor; SubsP MSC-Exo = exosomes of treated mesenchymal stem cells]” was tested, and the “increase in proliferation relative to non-treated mesenchymal stem cells” value [1, 7] was “about 290%”, the “proliferation ratio relative to non-treated mesenchymal stem cells (1)” value [1, 7] was 2.9 and the “colonies formed (each 50 or more cells)” value ([2]; 30 nM substance P pretreatment one week, non-treated 28.7) was 116 colonies. For the same molecule, the CFU-F increase [2, 7] was “about 404%”, the “fold more exosomes than non-treated mesenchymal stem cells” value [3, 7] was “about 4.3 fold” and the “No. of exosome particles, yield per 10^6 cells” value ([3]; 30 nM substance P pretreatment one week, non-treated 2.3) was 9.93 10^9. For the same molecule, the “fold greater exosomal proteins than non-treated mesenchymal stem cells” value [4, 7] was “about 5.2 fold”, the “Exosomal protein, yield per 10^6 cells” value ([4]; 30 nM substance P pretreatment one week, non-treated 2.0) was 10.37 ug and the “fold greater exosomal RNA than non-treated mesenchymal stem cells” value [5, 7] was “about 4.9 fold”. The “Exosomal RNA, yield per 10^6 cells” value ([5]; 30 nM substance P pretreatment one week, non-treated 31.0) was 150.84 ng.
exendin-4 was tested, and the “increase in proliferation relative to non-treated mesenchymal stem cells” value [1, 8] was “about 340%”, the “proliferation ratio relative to non-treated mesenchymal stem cells (1)” value [1, 8] was 3.4 and the “colonies formed (each 50 or more cells)” value ([2]; 20 nM exendin-4 pretreatment one week, non-treated 28.6) was 185 colonies. The CFU-F increase [2, 8] was “about 647%”, the “fold more exosomes than non-treated mesenchymal stem cells” value [3, 8] was “about 5.85 fold” and the “No. of exosome particles, yield per 10^6 cells” value ([3]; 20 nM exendin-4 pretreatment one week, non-treated 2.30) was 13.45 10^9. The “fold greater exosomal proteins than non-treated mesenchymal stem cells” value [4, 8] was “about 5.4 fold”, the “Exosomal protein, yield per 10^6 cells” value ([4]; 20 nM exendin-4 pretreatment one week, non-treated 2.00) was 10.69 μg and the “fold greater exosomal RNA than non-treated mesenchymal stem cells” value [5, 8] was “about 5.6 fold”. The “Exosomal RNA, yield per 10^6 cells” value ([5]; 20 nM exendin-4 pretreatment one week, non-treated 31.00) was 174.34 ng.
For `O=C(O)CCCc1cc2cc(Cl)ccc2n1S(=O)(=O)c1ccc2ncsc2c1` [lanifibranor], the “increase in proliferation relative to non-treated mesenchymal stem cells” value [1, 9] was “about 181%”, the “proliferation ratio relative to non-treated mesenchymal stem cells (1)” value [1, 9] was 1.81 and the “colonies formed (each 50 or more cells)” value ([2]; 10 μM lanifibranor pretreatment one week, non-treated 40) was 56.7 colonies. For the same molecule, the CFU-F increase [2, 9] was “about 142%”, the “fold more exosomes than non-treated mesenchymal stem cells” value [3, 9] was “about 4.95 fold” and the “No. of exosome particles, yield per 10^6 cells” value ([3]; 10 μM lanifibranor pretreatment one week, non-treated 2.30) was 11.4 10^9. For the same molecule, the “fold greater exosomal proteins than non-treated mesenchymal stem cells” value [4, 9] was “about 4.6 fold”, the “Exosomal protein, yield per 10^6 cells” value ([4]; 10 μM lanifibranor pretreatment one week, non-treated 2.0) was 9.2 ug and the “fold greater exosomal RNA than non-treated mesenchymal stem cells” value [5, 9] was “about 4.1 fold”. The “Exosomal RNA, yield per 10^6 cells” value ([5]; 10 μM lanifibranor pretreatment one week, non-treated 27.00) was 110.34 ng.
